In US11197479B2, “Use of silthiofam for the treatment of soybean rust” (priority 2018, dated 2021):
“And” between values parts separate entries of the source, which are not always exact repeats. Equal entries are not always repeated.

System: Phakopsora pachyrhizi
Assay: Glasshouse pot trial: efficacy on soybean rust on soybean (Glycine max), visual estimation of degree of infection on leaves
Format: in vivo
Protocol: In the tables presented below, the following terms have the following meaning:
Glasshouse pot trials were conducted to evaluate the effect and efficacy of silthiofam on soybean rust disease on soybean (Glycine max).
The trial was divided in 11 treatments. In 4 of the treatments, silthiofam was applied in different amounts.
Silthiofam compositions used in this trial were prepared from the suspension concentrate containing 125 g/L of silthiofam, diluted with water to predetermined concentration and sprayed on the plants in the predetermined amounts.
In two of the treatments, silthiofam was applied in combination with additional ingredients.
First combination was of silthiofam and chitosan, wherein silthiofam was applied in an amount of 250 g/ha on the plant first and chitosan was applied subsequently in an amount of 200 g/ha.
Second combination was a combination of silthiofam and tagatose, wherein silthiofam was applied in an amount of 250 g/ha simultaneously with tagatose in an amount of 200 g/ha.
Further 6 treatments were current market available treatments of soybean rust applied in the label prescribed dose, wherein the compositions used were prepared from commercially available products prepared according to the respective label instructions and sprayed on the plants.
One treatment of the trial consisted of fungi inoculated plants which received no treatment.
Soybean plants were treated two times with silthiofam and other treatments. First treatment was applied when soybean plants reached stage BBCH16 and the second treatment was applied when soybean plants reached stage BBCH61. Growth stages were defined according to Compendium of Growth Stage Identification Keys for Mono- and Dicotyledonous Plants, Extended BBCH scale, 2nd Edition 1997, ISBN 3-9520749-3-4.
After silthiofam and other treatments were applied first time, plants were inoculated with Phakopsora pachyrhizi spores and evaluation of leaves condition and disease spread was done every 7 days.
Method used for evaluation of disease spread was visual estimation of degree of infection on leaves.
The experimental design of the pot trial was randomized design with 4 pot replications per treatment applied, wherein six soybean plants were planted per pot.
Treatments were the following:
Treatment 1: Plant inoculated with P. pachyrhizi, no treatment applied
Treatment 2: Treatment with flutriafol and azoxystrobin mixture, applied in concentration of 31.25 g flutriafol/ha and 37.5 g azoxystrobin/ha
Treatment 3: Silthiofam treatment applied in 250 g silthiofam/ha
Treatment 4: Silthiofam treatment applied in 500 g silthiofam/ha
Treatment 5: Silthiofam treatment applied in 250 g silthiofam/ha and 200 g/ha of tagatose
Treatment 6: Silthiofam treatment applied in 250 g silthiofam/ha and 200 g/ha of chitosan
Treatment 7: Mancozeb applied in 1.68 kg mancozeb/ha
Treatment 8: Chlorothalonil applied in 626.4 g chlorothalonil/ha
Treatment 9: Azoxystrobin applied in 37.5 g azoxystrobin/ha
Treatment 10: Boscalid applied in 294 g boscalid/ha
Treatment 11: Prothioconazole and tebuconazole mixture applied as 42 g prothioconazole/ha and 84 g tebuconazole/ha

## CO/C=C(/C(=O)OC)c1ccccc1Oc1cc(Oc2ccccc2C#N)ncn1 [Azoxystrobin]
Azoxystrobin 37.5 g/ha, 7/7 d after first/last application, 19 d after planting, LEALOW
  % efficacy: 64.3% and 72.8% and 67.8% and 77.8%
Azoxystrobin 37.5 g/ha, 7/7 d after first/last application, 19 d after planting, LEAMID
  % efficacy: 73.4% and 88.9% and 81.9% and 100.0%
Azoxystrobin 37.5 g/ha, 7/7 d after first/last application, 19 d after planting, LEAUPP
  % efficacy: 100.0%
Azoxystrobin 37.5 g/ha, 14/14 d after first/last application, 26 d after planting, LEALOW
  % efficacy: 85.0% and 79.0% and 84.1% and 80.6%
Azoxystrobin 37.5 g/ha, 14/14 d after first/last application, 26 d after planting, LEAMID
  % efficacy: 92.0% and 94.5% and 90.0% and 89.4%
Azoxystrobin 37.5 g/ha, 14/14 d after first/last application, 26 d after planting, LEAUPP
  % efficacy: 98.6% and 90.8% and 98.7%
Azoxystrobin 37.5 g/ha, 21/21 d after first/last application, 33 d after planting, LEALOW
  % efficacy: 72.0% and 65.0% and 59.0% and 60.0%
Azoxystrobin 37.5 g/ha, 21/21 d after first/last application, 33 d after planting, LEAMID
  % efficacy: 82.0% and 79.0% and 90.0% and 78.0%
Azoxystrobin 37.5 g/ha, 21/21 d after first/last application, 33 d after planting, LEAUPP
  % efficacy: 100.0%
Azoxystrobin 37.5 g/ha, 28/7 d after first/last application, 40 d after planting, LEALOW
  % efficacy: 54.0% and 67.0% and 65.0% and 62.0%
Azoxystrobin 37.5 g/ha, 28/7 d after first/last application, 40 d after planting, LEAMID
  % efficacy: 82.0% and 85.0% and 88.0%
Azoxystrobin 37.5 g/ha, 28/7 d after first/last application, 40 d after planting, LEAUPP
  % efficacy: 100.0%
Azoxystrobin 37.5 g/ha, 35/14 d after first/last application, 47 d after planting, LEAMID
  % efficacy: 85.0% and 88.0% and 82.0%
Azoxystrobin 37.5 g/ha, 35/14 d after first/last application, 47 d after planting, LEAUPP
  % efficacy: 100.0% and 98.9%
Azoxystrobin 37.5 g/ha, 42/21 d after first/last application, 54 d after planting, LEAMID
  % efficacy: 52.0% and 62.0% and 56.0% and 58.0%
Azoxystrobin 37.5 g/ha, 42/21 d after first/last application, 54 d after planting, LEAUPP
  % efficacy: 82.0% and 85.0% and 86.0%

## O=C(Nc1ccccc1-c1ccc(Cl)cc1)c1cccnc1Cl [Boscalid]
Boscalid 294 g/ha, 7/7 d after first/last application, 19 d after planting, LEALOW
  % efficacy: 85.8% and 86.4% and 93.6% and 100.0%
Boscalid 294 g/ha, 7/7 d after first/last application, 19 d after planting, LEAMID
  % efficacy: 100.0%
Boscalid 294 g/ha, 7/7 d after first/last application, 19 d after planting, LEAUPP
  % efficacy: 100.0%
Boscalid 294 g/ha, 14/14 d after first/last application, 26 d after planting, LEALOW
  % efficacy: 76.0% and 80.0% and 78.0%
Boscalid 294 g/ha, 14/14 d after first/last application, 26 d after planting, LEAMID
  % efficacy: 90.0% and 86.8% and 88.0% and 85.1%
Boscalid 294 g/ha, 14/14 d after first/last application, 26 d after planting, LEAUPP
  % efficacy: 98.6% and 92.6% and 98.7%
Boscalid 294 g/ha, 21/21 d after first/last application, 33 d after planting, LEALOW
  % efficacy: 55.0% and 42.0% and 38.0% and 35.0%
Boscalid 294 g/ha, 21/21 d after first/last application, 33 d after planting, LEAMID
  % efficacy: 56.0% and 49.0% and 55.0% and 52.0%
Boscalid 294 g/ha, 21/21 d after first/last application, 33 d after planting, LEAUPP
  % efficacy: 91.9% and 88.9% and 89.4% and 92.9%
Boscalid 294 g/ha, 28/7 d after first/last application, 40 d after planting, LEALOW
  % efficacy: 49.0% and 52.0% and 51.0% and 44.0%
Boscalid 294 g/ha, 28/7 d after first/last application, 40 d after planting, LEAMID
  % efficacy: 44.0% and 48.0% and 56.0% and 52.0%
Boscalid 294 g/ha, 28/7 d after first/last application, 40 d after planting, LEAUPP
  % efficacy: 85.9% and 100.0% and 93.1% and 85.7%
Boscalid 294 g/ha, 35/14 d after first/last application, 47 d after planting, LEAMID
  % efficacy: 35.0% and 42.0% and 48.0% and 43.0%
Boscalid 294 g/ha, 35/14 d after first/last application, 47 d after planting, LEAUPP
  % efficacy: 83.6% and 82.0% and 77.3% and 82.2%
Boscalid 294 g/ha, 42/21 d after first/last application, 54 d after planting, LEAUPP
  % efficacy: 75.0% and 67.0% and 64.0% and 72.0%

## N#Cc1c(Cl)c(Cl)c(Cl)c(C#N)c1Cl [Chlorothalonil]
Chlorothalonil 626.4 g/ha, 7/7 d after first/last application, 19 d after planting, LEALOW
  % efficacy: 35.8% and 65.9% and 54.9% and 50.0%
Chlorothalonil 626.4 g/ha, 7/7 d after first/last application, 19 d after planting, LEAUPP
  % efficacy: 100.0%
Chlorothalonil 626.4 g/ha, 14/14 d after first/last application, 26 d after planting, LEALOW
  % efficacy: 75.0% and 69.0% and 68.1% and 59.2%
Chlorothalonil 626.4 g/ha, 14/14 d after first/last application, 26 d after planting, LEAMID
  % efficacy: 85.0% and 80.2% and 79.0% and 67.1%
Chlorothalonil 626.4 g/ha, 14/14 d after first/last application, 26 d after planting, LEAUPP
  % efficacy: 88.3% and 81.5% and 78.9% and 80.0%
Chlorothalonil 626.4 g/ha, 21/21 d after first/last application, 33 d after planting, LEALOW
  % efficacy: 55.0% and 40.0% and 44.0% and 45.0%
Chlorothalonil 626.4 g/ha, 21/21 d after first/last application, 33 d after planting, LEAMID
  % efficacy: 72.0% and 70.0% and 65.0% and 62.0%
Chlorothalonil 626.4 g/ha, 21/21 d after first/last application, 33 d after planting, LEAUPP
  % efficacy: 82.3% and 80.6% and 72.0% and 64.3%
Chlorothalonil 626.4 g/ha, 28/7 d after first/last application, 40 d after planting, LEALOW
  % efficacy: 22.0% and 34.0% and 32.0% and 26.0%
Chlorothalonil 626.4 g/ha, 28/7 d after first/last application, 40 d after planting, LEAMID
  % efficacy: 56.0% and 52.0% and 55.0% and 54.0%
Chlorothalonil 626.4 g/ha, 28/7 d after first/last application, 40 d after planting, LEAUPP
  % efficacy: 74.4% and 70.6% and 70.9% and 76.7%
Chlorothalonil 626.4 g/ha, 35/14 d after first/last application, 47 d after planting, LEAMID
  % efficacy: 52.0% and 44.0% and 48.0% and 42.0%
Chlorothalonil 626.4 g/ha, 35/14 d after first/last application, 47 d after planting, LEAUPP
  % efficacy: 63.8% and 69.0% and 68.0%
Chlorothalonil 626.4 g/ha, 42/21 d after first/last application, 54 d after planting, LEAUPP
  % efficacy: 52.0% and 45.0% and 42.0% and 48.0%

## Mancozeb
Mancozeb 1.68 kg/ha, 7/7 d after first/last application, 19 d after planting, LEALOW
  % efficacy: 50.0% and 65.9% and 64.6% and 61.2%
Mancozeb 1.68 kg/ha, 7/7 d after first/last application, 19 d after planting, LEAMID
  % efficacy: 46.7% and 72.3% and 54.6% and 50.0%
Mancozeb 1.68 kg/ha, 7/7 d after first/last application, 19 d after planting, LEAUPP
  % efficacy: 100.0%
Mancozeb 1.68 kg/ha, 14/14 d after first/last application, 26 d after planting, LEALOW
  % efficacy: 67.0% and 75.0% and 56.4% and 64.3%
Mancozeb 1.68 kg/ha, 14/14 d after first/last application, 26 d after planting, LEAMID
  % efficacy: 82.0% and 78.0% and 73.5%
Mancozeb 1.68 kg/ha, 14/14 d after first/last application, 26 d after planting, LEAUPP
  % efficacy: 83.8% and 72.3% and 85.9% and 76.0%
Mancozeb 1.68 kg/ha, 21/21 d after first/last application, 33 d after planting, LEALOW
  % efficacy: 42.0% and 38.0% and 52.0% and 48.0%
Mancozeb 1.68 kg/ha, 21/21 d after first/last application, 33 d after planting, LEAMID
  % efficacy: 66.0% and 62.0% and 59.0% and 60.0%
Mancozeb 1.68 kg/ha, 21/21 d after first/last application, 33 d after planting, LEAUPP
  % efficacy: 71.0% and 72.3% and 66.7% and 60.0%
Mancozeb 1.68 kg/ha, 28/7 d after first/last application, 40 d after planting, LEALOW
  % efficacy: 28.0% and 35.0% and 32.0% and 25.0%
Mancozeb 1.68 kg/ha, 28/7 d after first/last application, 40 d after planting, LEAMID
  % efficacy: 62.0% and 56.0% and 54.0% and 49.0%
Mancozeb 1.68 kg/ha, 28/7 d after first/last application, 40 d after planting, LEAUPP
  % efficacy: 82.1% and 74.2% and 73.7% and 68.9%
Mancozeb 1.68 kg/ha, 35/14 d after first/last application, 47 d after planting, LEAMID
  % efficacy: 48.0% and 36.0% and 32.0% and 43.0%
Mancozeb 1.68 kg/ha, 35/14 d after first/last application, 47 d after planting, LEAUPP
  % efficacy: 72.6% and 67.0% and 59.0% and 54.8%
Mancozeb 1.68 kg/ha, 42/21 d after first/last application, 54 d after planting, LEAUPP
  % efficacy: 54.0% and 43.0% and 52.0% and 38.0%
